# According to the supplement of paper PMC10307832:
# Columns and labels:
# Experiment in all cases: relative viability (nuclei count vs DMSO), 5 days (fraction); higher = more cells survive
# BEN = tested on: BEN
# Procedure, shortened: (§1)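 Lung cancer cell lines, seeded in 1536-well plates, were treated the following day by pin tool with a single drug or with five library-drug doses (not always all listed) in √10 steps on top of a fixed anchor-drug dose. Cells were fixed and nuclei stained in one step after 5 days, and nuclei were counted. Relative viability is the nuclei count for treated wells divided by that for vehicle wells, reported as medians of duplicate plates.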
# EMC-BAC-2 = tested on: EMC-BAC-2
# Procedure, shortened: as §1
# H3255 = tested on: H3255
# Procedure, shortened: as §1
# HOP-62 = tested on: HOP-62
# Procedure, shortened: as §1
# LCLC-97TM1 = tested on: LCLC-97TM1
# Procedure, shortened: as §1
# LXF-289 = tested on: LXF-289
# Procedure, shortened: as §1
# NCI-H1650 = tested on: NCI-H1650
# Procedure, shortened: as §1
# NCI-H1915 = tested on: NCI-H1915
# Procedure, shortened: as §1
# NCI-H1993 = tested on: NCI-H1993
# Procedure, shortened: as §1
# NCI-H2009 = tested on: NCI-H2009
# Procedure, shortened: as §1
# NCI-H2023 = tested on: NCI-H2023
# Procedure, shortened: as §1
# NCI-H2085 = tested on: NCI-H2085
# Procedure, shortened: as §1
# NCI-H2126 = tested on: NCI-H2126
# Procedure, shortened: as §1
# NCI-H2342 = tested on: NCI-H2342
# Procedure, shortened: as §1
# NCI-H2347 = tested on: NCI-H2347
# Procedure, shortened: as §1
# NCI-H322M = tested on: NCI-H322M
# Procedure, shortened: as §1
# NCI-H358 = tested on: NCI-H358
# Procedure, shortened: as §1
# NCI-H647 = tested on: NCI-H647
# Procedure, shortened: as §1
# NCI-H661 = tested on: NCI-H661
# Procedure, shortened: as §1
# NCI-H727 = tested on: NCI-H727
# Procedure, shortened: as §1
# PC-14 = tested on: PC-14
# Procedure, shortened: as §1
# SK-LU-1 = tested on: SK-LU-1
# Procedure, shortened: as §1
# SW 1573 = tested on: SW 1573
# Procedure, shortened: as §1
smiles,measurement,setting,value
COc1cc(N2CCC(C(N)=O)CC2)ccc1Nc1nc(N)c(Cl)c(Nc2ccccc2S(=O)(=O)C(C)C)n1 [HG-5-88-01] + O=C(c1cc(Cc2n[nH]c(=O)c3ccccc23)ccc1F)N1CCN(C(=O)C2CC2)CC1 [Olaparib] (partner 8 µM),relative viability,BEN; first compound 0.04 µM,1.2
same,relative viability,BEN; first compound 0.1265 µM,1.16
same,relative viability,BEN; first compound 0.4 µM,1.13
same,relative viability,BEN; first compound 1.265 µM,0.683
same,relative viability,BEN; first compound 4 µM,0.993
same,relative viability,EMC-BAC-2; first compound 0.04 µM,0.482
same,relative viability,EMC-BAC-2; first compound 0.1265 µM,0.526
same,relative viability,EMC-BAC-2; first compound 0.4 µM,0.615
same,relative viability,EMC-BAC-2; first compound 1.265 µM,0.459
same,relative viability,EMC-BAC-2; first compound 4 µM,0.46
same,relative viability,H3255; first compound 0.04 µM,0.556
same,relative viability,H3255; first compound 0.1265 µM,0.593
same,relative viability,H3255; first compound 0.4 µM,0.555
same,relative viability,H3255; first compound 4 µM,0.531
same,relative viability,HOP-62; first compound 0.04 µM,0.426
same,relative viability,HOP-62; first compound 0.1265 µM,0.511
same,relative viability,HOP-62; first compound 0.4 µM,0.396
same,relative viability,HOP-62; first compound 1.265 µM,0.538
same,relative viability,HOP-62; first compound 4 µM,0.283
same,relative viability,LCLC-97TM1; first compound 0.04 µM,0.434
same,relative viability,LCLC-97TM1; first compound 0.1265 µM,0.396
same,relative viability,LCLC-97TM1; first compound 0.4 µM,0.398
same,relative viability,LCLC-97TM1; first compound 1.265 µM,0.26
same,relative viability,LCLC-97TM1; first compound 4 µM,0.193
same,relative viability,LXF-289; first compound 0.04 µM,0.988
same,relative viability,LXF-289; first compound 0.1265 µM,1.13
same,relative viability,LXF-289; first compound 0.4 µM,1.02
same,relative viability,LXF-289; first compound 1.265 µM,1.07
same,relative viability,LXF-289; first compound 4 µM,1.08
same,relative viability,NCI-H1650; first compound 0.04 µM,0.729
same,relative viability,NCI-H1650; first compound 0.1265 µM,0.753
same,relative viability,NCI-H1650; first compound 0.4 µM,0.969
same,relative viability,NCI-H1650; first compound 1.265 µM,0.65
same,relative viability,NCI-H1650; first compound 4 µM,0.837
same,relative viability,NCI-H1915; first compound 0.04 µM,0.259
same,relative viability,NCI-H1915; first compound 0.1265 µM,0.25
same,relative viability,NCI-H1915; first compound 0.4 µM,0.304
same,relative viability,NCI-H1915; first compound 1.265 µM,0.266
same,relative viability,NCI-H1915; first compound 4 µM,0.248
same,relative viability,NCI-H1993; first compound 0.04 µM,1.12
same,relative viability,NCI-H1993; first compound 0.1265 µM,1.03
same,relative viability,NCI-H1993; first compound 0.4 µM,0.949
same,relative viability,NCI-H1993; first compound 4 µM,0.842
same,relative viability,NCI-H2009; first compound 0.04 µM,0.684
same,relative viability,NCI-H2009; first compound 0.1265 µM,0.651
same,relative viability,NCI-H2009; first compound 0.4 µM,0.687
same,relative viability,NCI-H2009; first compound 1.265 µM,0.685
same,relative viability,NCI-H2009; first compound 4 µM,0.684
same,relative viability,NCI-H2023; first compound 0.04 µM,0.515
same,relative viability,NCI-H2023; first compound 0.1265 µM,0.519
same,relative viability,NCI-H2023; first compound 0.4 µM,0.445
same,relative viability,NCI-H2023; first compound 1.265 µM,0.441
same,relative viability,NCI-H2023; first compound 4 µM,0.277
same,relative viability,NCI-H2085; first compound 0.04 µM,0.853
same,relative viability,NCI-H2085; first compound 0.1265 µM,0.753
same,relative viability,NCI-H2085; first compound 0.4 µM,0.833
same,relative viability,NCI-H2085; first compound 1.265 µM,0.765
same,relative viability,NCI-H2085; first compound 4 µM,0.871
same,relative viability,NCI-H2126; first compound 0.04 µM,0.972
same,relative viability,NCI-H2126; first compound 0.1265 µM,0.911
same,relative viability,NCI-H2126; first compound 0.4 µM,0.939
same,relative viability,NCI-H2126; first compound 1.265 µM,0.822
same,relative viability,NCI-H2126; first compound 4 µM,0.872
same,relative viability,NCI-H2342; first compound 0.04 µM,0.449
same,relative viability,NCI-H2342; first compound 0.1265 µM,0.538
same,relative viability,NCI-H2342; first compound 0.4 µM,0.473
same,relative viability,NCI-H2342; first compound 4 µM,0.474
same,relative viability,NCI-H2347; first compound 0.04 µM,0.664
same,relative viability,NCI-H2347; first compound 0.1265 µM,0.569
same,relative viability,NCI-H2347; first compound 0.4 µM,0.61
same,relative viability,NCI-H2347; first compound 1.265 µM,0.539
same,relative viability,NCI-H2347; first compound 4 µM,0.549
same,relative viability,NCI-H322M; first compound 0.04 µM,0.809
same,relative viability,NCI-H322M; first compound 0.1265 µM,0.699
same,relative viability,NCI-H322M; first compound 0.4 µM,0.913
same,relative viability,NCI-H322M; first compound 1.265 µM,0.485
same,relative viability,NCI-H322M; first compound 4 µM,0.686
same,relative viability,NCI-H358; first compound 0.04 µM,0.569
same,relative viability,NCI-H358; first compound 0.1265 µM,0.568
same,relative viability,NCI-H358; first compound 0.4 µM,0.545
same,relative viability,NCI-H358; first compound 1.265 µM,0.242
same,relative viability,NCI-H358; first compound 4 µM,0.466
same,relative viability,NCI-H647; first compound 0.04 µM,0.552
same,relative viability,NCI-H647; first compound 0.1265 µM,0.553
same,relative viability,NCI-H647; first compound 1.265 µM,0.667
same,relative viability,NCI-H647; first compound 4 µM,0.738
same,relative viability,NCI-H661; first compound 0.04 µM,0.707
same,relative viability,NCI-H661; first compound 0.1265 µM,0.779
same,relative viability,NCI-H661; first compound 0.4 µM,0.8
same,relative viability,NCI-H661; first compound 1.265 µM,0.716
same,relative viability,NCI-H661; first compound 4 µM,0.845
same,relative viability,NCI-H727; first compound 0.04 µM,0.715
same,relative viability,NCI-H727; first compound 0.1265 µM,0.705
same,relative viability,NCI-H727; first compound 0.4 µM,0.827
same,relative viability,NCI-H727; first compound 4 µM,0.572
same,relative viability,PC-14; first compound 0.04 µM,0.257
same,relative viability,PC-14; first compound 0.1265 µM,0.339
same,relative viability,PC-14; first compound 0.4 µM,0.321
same,relative viability,PC-14; first compound 1.265 µM,0.307
same,relative viability,PC-14; first compound 4 µM,0.0752
same,relative viability,SK-LU-1; first compound 0.04 µM,0.447
same,relative viability,SK-LU-1; first compound 0.1265 µM,0.442
same,relative viability,SK-LU-1; first compound 0.4 µM,0.444
same,relative viability,SK-LU-1; first compound 1.265 µM,0.417
same,relative viability,SK-LU-1; first compound 4 µM,0.295
same,relative viability,SW 1573; first compound 0.04 µM,0.562
same,relative viability,SW 1573; first compound 0.1265 µM,0.554
same,relative viability,SW 1573; first compound 0.4 µM,0.438
same,relative viability,SW 1573; first compound 1.265 µM,0.368
same,relative viability,SW 1573; first compound 4 µM,0.375
